# Patent US4163780A (Kirin-Seagram Limited, priority 1977, dated 1979)
# Tested on: influenza A2 -Kumamoto/Y5 (H2 N2) virus
# Format: in vivo, influenza virus; DDI mice
# Conditions: Virazole 50 mg/kg, intraperitoneal, 15 times
structure (smiles),measurement,value
NC(=O)c1ncn([C@@H]2O[C@H](CO)[C@@H](O)[C@H]2O)n1 [Virazole],Average of survival days,> 16.9 days
same,Survival percentage,30%
